In patent US7312248B2, “Control of parasites in animals by the use of novel trifluoromethanesulfonanilide oxime ether derivatives” (Schering-Plough Animal Health Corporation, priority 2004, dated 2007):
Like-named read-outs stand apart in the source and are kept apart here.

Tests used:
Format in all cases: in vivo
[1] = tested on: cat flea (Ctenocephalides felis); experiment: whole plant or invertebrate; details: Ctenocephalides felis; for mortality at 1.26 µg/cm2, 1.26 µg/cm2: Laboratory 1 A data
How it was run: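 Single-dose screen at 1.26 μg/cm^2: acetone solution dried for 24 h on a Coatasil-treated 159 mm^2 flask base, then 15 adult cat fleas aged 3-7 days per flask, four or more replicates, acetone control. Percent dead, meaning not moving or unable to right themselves, recorded after 8, 24 and/or 48 h at 25 °C and 75% RH.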

[2] = tested on: Brown Dog Tick (Rhipicephalus sanguineus); experiment: Dose response protocol for topical application on brown dog ticks (LD50); details: 24 h mortality
Experimental: e) Dose response protocol for topical application on brown dog ticks (Rhipicephalus sanguineus): The test determines the level of insecticidal activity of sample compounds or formulations when applied topically on brown dog ticks. Sample compounds were stored prior to use in a freezer (−5±1° C.), unless otherwise specified.
• Mortality: A tick is defined as dead after it gives no apparent response when touched lightly or gently breathed upon, while observed for 30 seconds. • LD50 (Lethal Dose 50): The dose of a topically applied treatment at which 50% of the dog ticks are killed. • Reference compound: To assess an experimental compound for significant acaricidal activity a single dose level is chosen, which is based upon known results from previous experiments using a commercially available active i.e., a reference compound. The reference compound selected is one in common use, and one that has a similar mode of action against the Brown Dog Tick (i.e., the test species). • Recovery container: A recovery container consists of a 500 ml round plastic container measuring 115 mm diameter and 70 mm height, with a tight fitting lid that has 10 small (˜1 mm) holes inserted for air exchange. A 90 mm diameter piece of filter paper was placed on the bottom of the container and moistened with 1 mL of de-stilled water.
Adult, mixed sex, Brown Dog Ticks (Rhipicephalus sanguineus) were reared as follows: (i) cultured, (ii) transferred unfed, to a testing laboratory, and (iii) then maintained under controlled conditions (i.e., temp. 18°±2° C., humidity 75±5% RH). The ticks used were selected for vigor prior to testing, i.e., capable of actively walking and responsive to being touched or gently breathed upon.
During the testing, the temperature was maintained at 25±1° C., and the humidity was ambient. Seven dose levels (concentrations) of sample compound, in the form of serial dilutions in acetone, were derived from a pilot study and covered a range that produced very low to very high mortality. Groups of ten ticks were treated topically (on the abdomen) with 1 μL of a single dose level of the sample compound. Each test was replicated four times, i.e., employing a total of 40 ticks per dose level of each sample compound. As a control, ten ticks were treated with solvent only (acetone) for each test. Following the treatment, the ticks were held in recovery containers maintained under appropriate rearing conditions for 24 hours. Mortality resulting from the treatments was recorded at 24 hours. […] Press, London (1971).]

[3] = tested on: cat flea (Ctenocephalides felis); experiment: Ctenocephalides felis adulticide assay: dose response (LC50)
From the text: c) Ctenocephalides felis Adulticide Assay: C. felis Dose Response
The purpose of this example was to determine the LC50 when cat fleas were contacted with a glass surface treated with sample compounds or formulations prepared as described above. Mortality of fleas was defined as follows: fleas were considered dead if they didn't move or were on their sides and unable to walk or right themselves. LC50: Lethal Concentration 50—concentration of glass surface treatment at which 50% of the cat fleas were killed. The test species was the cat flea (Ctenocephalides felis). The strain used was obtained from external suppliers as pupae and held in the laboratory under testing conditions until the adults had emerged. Fifteen (15) fleas were used in a minimum of four replicates for each dose level (total of 60 fleas per dose level). The insects were selected to be in the adult life stage, aged between 3 and 7 days post emergence.
The compounds to be tested were dissolved in acetone just prior to testing. Samples of compounds were stored in a refrigerator (5±1° C.) unless otherwise specified. During the mortality testing, the temperature was maintained at 25+1° C. Humidity was maintained at 75±5%. The base (area=159 mm^2) of a 100 mL glass Erlenmeyer (conical) flask provided the treatment surface. Flasks were pretreated with Coatasil™ glass treatment to maximise bio-availability of test compounds by preventing them from binding to the glass surface.
Six dose levels (concentrations) of test sample, in the form of a serial dilution, were derived from a pilot study and covered a range that produced very low to very high mortality. The base of the 100 mL Erlenmeyer flask was treated with 0.5 mL of test sample in acetone and gently swirled. This volume was sufficient to cover the base of the flask. Flasks were left to dry for 24 hours before flea exposure. Adult cat fleas were lightly anaesthetised by cooling and then placed into a sorting chamber, which allowed fleas to revive and jump into the Erlenmeyer flasks. Fifteen (15)adult cat fleas were collected in each flask. The top of the flasks were then covered in Parafilm™ and small holes made to allow gas exchange. A 0.5 mL volume of acetone was applied to the base of an Erlenmeyer flask and the testing proceeded in the same manner described above. Cat fleas in the treatment containers were held under testing conditions for 24 hours. Mortality resulting from the treatments was recorded at 8 and 24 hours.

[4] = tested on: Brown Dog Tick (Rhipicephalus sanguineus); experiment: Rapid screening protocol for topical application on brown dog ticks; details: for R. sanguineus Mortality (%) 48 h: Laboratory 2 F data; for Rhipicephalus sanguineus Mortality (%) 24 h: topical, 10 μg of active per tick in 1 μL acetone, adult ticks, Laboratory 1 E data
Experimental: d) Rapid Screening Protocol for Topical Application on Brown Dog Ticks (Rhipicephalus sanguineus)
The aim of the test was to determine the presence of significant acaricidal activity in sample compounds or formulations when applied topically on brown dog ticks. A tick was defined as dead if it gave no apparent response when touched lightly and observed for 1 minute. […] Both permethrin and fipronil were employed as reference compounds. The insect species tested was the Brown Dog Tick (Rhipicephalus sanguineus). Mixed sex adult ticks were used for tests. The strain used was cultured by von Berky Veterinary Services, Woody Point, QLD, AU and supplied as unfed adult ticks (mixed sex). Ticks were maintained in controlled conditions (temp. 18°+2° C., humidity 75±5% RH).
Temperature was maintained at 25±1° C. and the humidity was ambient. […] Ticks were each treated on the abdomen with 1 μL of a single dose level of test sample in acetone; ten ticks were treated with solvent only (acetone) in each test. Tests were replicated 4 times (total of 40 ticks treated). […]

Haemonchus contortus = Haemonchus contortus larvacidal (larval development) assay; details: 144 h, read-out: Haemonchus contortus LD99
How it was run: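 Nematode eggs placed on agar containing compound (12 two-fold dilutions, final 0.024–50 μg/ml) and left 6 days to develop to L3. LD99 is the lowest concentration inhibiting development of 99% of larvae, derived from well titre (2^n−1) and top concentration.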

[5] = 24 h, read-out: C. felis Mortality (%) 24 h, 24 h
[6] = 8 h, read-out: C. felis Mortality (%) 8 h, 8 h
[7] = 8 h, read-out: Ctenocephalides felis Mortality (%) 8 h
[8] = 24 h, read-out: Ctenocephalides felis Mortality (%) 24 h
[9] = 48 h, read-out: Ctenocephalides felis Mortality (%) 48 h

Row | Structure (SMILES) | mortality at 1.26 µg/cm2, 1.26 µg/cm2 [1, 5] [%] | C. felis LC50 ([3]; Laboratory 1 C data) [μg/cm^2] | R. sanguineus Mortality (%) 48 h [4] [%] | IC99 (Haemonchus contortus) [µg/mL] | mortality at 1.26 µg/cm2 [1, 8] [%] | Rhipicephalus sanguineus Mortality (%) 24 h [4] [%] | further results
1 | CCON=C(c1ccccc1)c1cc(Cl)ccc1NS(=O)(=O)C(F)(F)F (single isomer, unassigned) [Compound 177, N-[4-chloro-2-(ethoxyiminophenylmethyl)phenyl]trifluoromethanesulfonamide] | 100 | 0.3 |  |  |  |  | R. sanguineus LD50 [2]: 17.6 μg/tick
2 | CC/C(=N\OCc1ccccc1C(F)(F)F)c1cc(Cl)ccc1NS(=O)(=O)C(F)(F)F [Compound 6] | 96 | 0.1 | 82 | 1.3 |  |  | mortality at 1.26 µg/cm2, 1.26 µg/cm2 [1, 6]: 69%; C. felis LC50 ([3]; Laboratory 2 D data): 0.03 μg/cm^2
3 | CC/C(=N\OCc1ccc(Br)cc1)c1cc(Cl)ccc1NS(=O)(=O)C(F)(F)F [Compound 75] | 78 | 0.3 | 77 | 0.9 |  |  | mortality at 1.26 µg/cm2, 1.26 µg/cm2 [1, 6]: 37%
4 | CC/C(=N\OCc1ccc(C(F)(F)F)cc1C(F)(F)F)c1cc(Cl)ccc1NS(=O)(=O)C(F)(F)F [Compound 76, N-{2-[1-(2,4-bistrifluoromethylbenzyloxyimino)propyl]-4-chlorophenyl}trifluoromethanesulfonamide] |  | 0.2 | 80 | 0.3 |  |  | mortality at 1.26 µg/cm2, 1.26 µg/cm2 [1, 6]: 100%; C. felis LC50 ([3]; Laboratory 2 D data): 0.05 μg/cm^2
5 | CC/C(=N\OCC1CCCCC1)c1cc(Cl)ccc1NS(=O)(=O)C(F)(F)F [Compound 104, N-[4-chloro-2-(1-cyclohexylmethoxyiminopropyl)phenyl]trifluoromethanesulfonamide] | 100 | 0.3 | 100 | 10 |  |  | C. felis LC50 ([3]; Laboratory 2 D data): 1.6 μg/cm^2
6 | CC/C(=N\Oc1ccc(Cl)cc1)c1cc(Cl)ccc1NS(=O)(=O)C(F)(F)F [Compound 128, N-{4-chloro-2-[1-(4-chlorophenoxyimino)propyl]phenyl}trifluoromethanesulfonamide] | 100 | 0.08 | 85 | 0.4 |  |  | C. felis LC50 ([3]; Laboratory 2 D data): 0.05 μg/cm^2
7 | C/C(=N\Oc1cccc(Cl)c1)c1cc(Cl)ccc1NS(=O)(=O)C(F)(F)F [Compound 132] | 100 | 0.2 | 80 | 1.6 |  |  | 
8 | CC/C(=N\OC1CCCCC1)c1cc(Cl)ccc1NS(=O)(=O)C(F)(F)F [Compound 157] | 100 | 0.3 |  |  |  |  | R. sanguineus LD50 [2]: 5.7 μg/tick
9 | CCC(CC)O/N=C(\C)c1cc(Cl)ccc1NS(=O)(=O)C(F)(F)F [Compound 174] | 100 | 0.1 |  |  |  |  | R. sanguineus LD50 [2]: 2.9 μg/tick
10 | C/C(=N\OC1C=CCCC1)c1cc(Cl)ccc1NS(=O)(=O)C(F)(F)F (stereo not drawn) [Compound 175] | 100 | 0.1 |  |  |  |  | R. sanguineus LD50 [2]: 4.0 μg/tick
11 | CCO/N=C(\c1ccccc1)c1cc(Cl)ccc1NS(=O)(=O)C(F)(F)F [Compound 178, N-[4-chloro-2-(ethoxyiminophenylmethyl)phenyl]trifluoromethanesulfonamide] | 96 | 0.3 | 85 |  |  |  | 
12 | CCCCc1cc(-c2cc(Cl)ccc2NS(=O)(=O)C(F)(F)F)no1 [Compound 291] |  |  |  |  | 100 | 67 | mortality at 1.26 µg/cm2 [1, 7]: 91%
13 | O=S(=O)(Nc1ccc(Cl)cc1-c1ccon1)C(F)(F)F [Compound 293] |  |  |  |  | 100 | 80 | mortality at 1.26 µg/cm2 [1, 7]: 60%
14 | CCOCN(c1ccc(Cl)cc1/C(CC)=N/OCc1ccc(Cl)cc1)S(=O)(=O)C(F)(F)F [Compound 302] |  |  |  |  | 3 | 5 | mortality at 1.26 µg/cm2 [1, 9]: 82%
15 | CC/C(=N\OCc1ccc(Cl)cc1)c1cc(Cl)ccc1N(COC(=O)C(C)(C)C)S(=O)(=O)C(F)(F)F [Compound 303] |  |  |  |  | 0 | 2 | mortality at 1.26 µg/cm2 [1, 9]: 76%
16 | CC/C(=N\OCc1ccc(Cl)cc1)c1cc(Cl)ccc1N(C(C)=O)S(=O)(=O)C(F)(F)F [Compound 307, N-acetyl-N-{4-chloro-2-[1-(4-chlorobenzyloxyimino)propyl]phenyl}trifluoromethanesulfonamide] |  |  |  |  | 10 | 5 | mortality at 1.26 µg/cm2 [1, 9]: 98%
17 | CC(=O)N(c1ccc(Cl)cc1/C(C)=N/Oc1ccc(F)cc1)S(=O)(=O)C(F)(F)F [Compound 308] |  |  |  |  | 100 | 7 | mortality at 1.26 µg/cm2 [1, 7]: 29%
18 | CCOC(=O)N(c1ccc(Cl)cc1/C(C)=N/Oc1ccc(F)cc1)S(=O)(=O)C(F)(F)F [Compound 310, N-carbonylethoxy-N-{4-chloro-2-[1-(4-fluorophenoxyimino)ethyl]phenyl}trifluoromethanesulfonamide] |  |  |  |  |  | 52 | mortality at 1.26 µg/cm2 ([1]; 8 h, single concentration 1.26 μg/cm^2 on treated glass, adult fleas, Laboratory 2 B data, read-out: Ctenocephalides felis Mortality (%) 8 h): 56%; mortality at 1.26 µg/cm2 ([1]; 24 h, single concentration 1.26 μg/cm^2 on treated glass, adult fleas, Laboratory 2 B data, read-out: Ctenocephalides felis Mortality (%) 24 h): 100%
